Patent publication EP4793276A1, “DRUG FOR DIAGNOSING DIABETIC NEPHROPATHY AND USE THEREOF” (Fudan University, priority 2023, dated 2025)

How the values were obtained:
[1] = test system: diabetic nephropathy mice; experiment: Ex vivo autoradiography of kidneys after tail vein injection; conditions: mouse
Excerpt: The spontaneous type 2 diabetes mice model was developed using the db/db homozygous mice (BKS.Cg-Dock7m+/+LeprdbJ; JAX® Mice Strain Code 607) discovered by the Jackson Laboratory in the United States. […] Their pathogenesis is very similar to that of subjects with type 2 diabetes. The control group mice were either normal mice (m/m) or heterozygous mice (m/db).
Sixty minutes later, the mice were euthanized by dislocation, and their kidneys were removed and rapidly frozen in dry ice. 20 µm frozen sections were prepared using a cryostat (Reward, RWD Minux FS800). Frozen sections were held in contact with the developing plate (FUJIFILM; BAS-IP SR 2025E) for 2 hours, and images were read and quantitatively analyzed using an autoradiography scanner (CR-35 Bio; Elysia-Raytest).

db/db model mice [2] = experiment: PET in vivo imaging; conditions: 15 MBq intravenous, 90 minutes acquisition, FIG.3
Method: PET scans were performed using an Inveon scanner (Siemens Medical Solutions Knoxville, TN, USA). Mice (m/m and db/db mice) were anesthetized with 1.5% (v/v) isoflurane and then fixed in the center of the FOV of a PET scanner. Immediately after intravenous injection of ^18F-KIDJI-004 (15 MBq), 90 minutes of radiation signals were acquired in three-dimensional mode. The energy window is 350-750 keV. After the PET scan was completed, mice were intravenously injected with iodofol (35%) (Optiray 350; Guerbet) at a dose of 5 µL/g body weight, followed immediately by a 30-second CT scan (X-ray source: 70 kV/88 mA, FOV: 60 mm). Mice were anesthetized with 1.5% (v/v) isoflurane during PET and CT scans.

db/db model mice [3] = experiment: SPECT in vivo imaging; conditions: 11.1 MBq via the tail vein, acquisition up to 2 hours, FIG.3
Method: SPECT scans were performed using the nanoScan SPECT/CT scanner (Mediso Medical Imaging Systems, Hungary). […] Immediately afterward, the radiation signal was acquired in three-dimensional mode every 30 minutes for up to 2 hours. The energy window is set to 360-700 keV. After completing the SPECT scan, mice were injected with iodofol (Optiray 350; Guerbet) via the tail vein at a dose of 5 µL/g body weight, followed immediately by a 30-second CT scan (X-ray source: 50 kV/980 µA, 480 projections; mice were anesthetized with 1.5% (v/v) isoflurane during both the SPECT and CT scans).

Structure (SMILES)	accumulation in the renal pelvis of diabetic nephropathy mice [1]	accumulation in the kidneys of normal mice (db/db model mice [2])	accumulation in the renal pelvis of the kidneys of db/db model mice (db/db model mice [2])	accumulation in the kidneys of normal mice (db/db model mice [3])	accumulation in the renal pelvis of the kidneys of db/db model mice (db/db model mice [3])
C[C@H]1Cc2c(nnn2-c2ncccn2)CN1C(=O)c1ccnc(C(F)(F)F)c1[18F] [^18F-KIDJI-003, (S)-(3-fluoro-2-(trifluoromethyl)pyridin-4-yl)(6-methyl-1-(pyrimidin-2-yl)-1,4,6,7-tetrahydro-5H-[1,2,3]triazolo[4,5-c]pyridin-5-yl) methyl ketone]	significant accumulation				
Cc1cc(C(=O)N2Cc3nnn(-c4ncccn4)c3C[C@@H]2C)cc([18F])n1 [^18F-KIDJI-004, (S)-(2-fluoro-6-methylpyridin-4-yl)(6-methyl-1-(pyrimidin-2-yl)-1,4,6,7-tetrahydro-5H-[1,2,3]triazolo[4,5-c]pyridin-5-yl) methyl ketone]		no significant accumulation	significantly accumulated		
O=C(c1ccc([131I])cc1)N1CCc2c(nnn2-c2ncccn2)C1 [^131I-KIDJI-007, (4-iodophenyl)(1-(pyrimidin-2-yl)-1,4,6,7-tetrahydro-5H-[1,2,3]triazolo[4,5-c]pyridin-5-yl) methyl ketone]				no significant accumulation	significantly accumulated
COc1ccc(C(=O)N2CCc3c(nnn3-c3ncccn3)C2)cc1[131I] [^131I-KIDJI-008, (3-iodo-4-methoxyphenyl)(1-(pyrimidin-2-yl)-1,4,6,7-tetrahydro-5H-[1,2,3]triazolo[4,5-c]pyridin-5-yl) methyl ketone]				no significant accumulation	significantly accumulated
O=C(c1ccc([N+](=O)[O-])cc1[131I])N1CCc2c(nnn2-c2ncccn2)C1 [^131I-KIDJI-009, (2-iodo-4-nitro)(1-(pyrimidin-2-yl)-1,4,6,7-tetrahydro-5H-[1,2,3]triazolo[4,5-c]pyridin-5-yl) methyl ketone]				no significant accumulation	significantly accumulated
O=C(c1ccc([131I])cc1F)N1CCc2c(nnn2-c2ncccn2)C1 [^131I-KIDJI-010, (2-fluoro-4-iodophenyl)(1-(pyrimidin-2-yl)-1,4,6,7-tetrahydro-5H-[1,2,3]triazolo[4,5-c]pyridin-5-yl) methyl ketone]				no significant accumulation	significantly accumulated
